≈ marks a conversion by molar mass, not a printed value.
Columns and labels:
Assay in all cases: ≥ marks a high value that may be exact or a test limit, other limits are often not marked, values filed in µg/mL are converted to µM
[1] = test system: Pseudomonas aeruginosa CMCCB 10104
[2] = test system: Escherichia coli ATCC 25922
[3] = test system: Candida albicans ATCC 2002
[4] = test system: Staphylococcus aureus ATCC 25923
Escherichia coli JW0013 = test system: Escherichia coli JW0013
[5] = test system: Pseudomonas aeruginosa PAO1
Escherichia coli UB1005 = test system: Escherichia coli UB1005

| MIC [1] [µM] | MIC [2] [µM] | MIC [3] [µM] | MIC [4] [µM] | MIC (Escherichia coli JW0013) [µM] | MIC [5] [µM] | MIC (Escherichia coli UB1005) [µM] | SMILES |
| --- | --- | --- | --- | --- | --- | --- | --- |
| 5.05 (≈ 10.2 µg/mL) | 2.53 (≈ 5.1 µg/mL) | 2.53 (≈ 5.1 µg/mL) | 2.53 (≈ 5.1 µg/mL) |  |  |  | CC[C@H](C)[C@H](NC(=O)CN)C(=O)N[C@@H](CC(C)C)C(=O)NCC(=O)N[C@@H](CC(N)=O)C(=O)N[C@H](C(=O)N[C@H](C(=O)NCC(=O)N[C@@H](CCSC)C(=O)NCC(=O)N[C@@H](CCCCN)C(=O)N[C@@H](CCC(N)=O)C(=O)N[C@H](C(=O)N[C@H](C(=O)N[C@H]1CSSC[C@@H](C(=O)O)NC(=O)[C@H](CC(C)C)NC(=O)CNC(=O)[C@H](CO)NC(=O)[C@H](CC(C)C)NC(=O)CNC1=O)C(C)C)C(C)C)C(C)C)[C@@H](C)CC [GILGNIVGMGKQVVCGLSGLC] |
| 11.6 (≈ 23 µg/mL) | 5.79 (≈ 11.5 µg/mL) | 5.79 (≈ 11.5 µg/mL) | 2.92 (≈ 5.79 µg/mL) |  |  |  | CC[C@H](C)[C@H](NC(=O)CNC(=O)[C@H](CO)NC(=O)[C@H](CC(C)C)NC(=O)[C@@H](NC(=O)CN)[C@@H](C)CC)C(=O)N[C@@H](CC(C)C)C(=O)NCC(=O)N[C@H](C(=O)NCC(=O)N[C@@H](CCCCN)C(=O)N[C@@H](CCCCN)C(=O)N[C@@H](CC(C)C)C(=O)N[C@H](C(=O)N[C@H]1CSSC[C@@H](C(=O)O)NC(=O)[C@H](CC(C)C)NC(=O)CNC(=O)[C@H](CO)NC(=O)[C@H](CC(C)C)NC(=O)CNC1=O)C(C)C)C(C)C [GILSGILGVGKKLVCGLSGLC] |
| 0.699 (≈ 3.4 µg/mL) | 0.699 (≈ 3.4 µg/mL) | 0.349 (≈ 1.7 µg/mL) | 0.349 (≈ 1.7 µg/mL) |  |  |  | CC[C@H](C)[C@H](NC(=O)CNC(=O)[C@H](CCCCN)NC(=O)CNC(=O)[C@H](C)NC(=O)[C@H](Cc1ccccc1)NC(=O)[C@H](CCCCN)NC(=O)[C@H](CO)NC(=O)[C@H](Cc1ccccc1)NC(=O)[C@H](CC(C)C)NC(=O)CN)C(=O)N[C@@H](CCCCN)C(=O)N[C@@H](CC(N)=O)C(=O)N[C@@H](Cc1ccccc1)C(=O)N[C@@H](CC(C)C)C(=O)N[C@H](C(=O)N[C@@H](CCCCN)C(=O)NCC(=O)N[C@H](C(=O)N[C@@H](CCCCN)C(=O)N[C@@H](Cc1cnc[nH]1)C(=O)N[C@H](C(=O)NCC(=O)N[C@@H](CCCCN)C(=O)N[C@@H](CCC(=O)O)C(=O)N[C@H](C(=O)NCC(=O)N[C@@H](CCSC)C(=O)N[C@@H](CC(=O)O)C(=O)N[C@H](C(=O)N[C@H](C(=O)N[C@@H](CCCN=C(N)N)C(=O)N[C@H](C(=O)NCC(=O)N[C@H](C(=O)N[C@@H](CC(=O)O)C(=O)N[C@H](C(=O)N[C@@H](C)C(=O)NCC(=O)N[C@H]1CSSC[C@@H](C(=O)O)NC(=O)[C@H](CCC(=O)O)NC(=O)CNC(=O)[C@H](CCCCN)NC(=O)[C@H]([C@@H](C)CC)NC(=O)[C@H](CCCCN)NC1=O)C(C)C)[C@@H](C)CC)[C@@H](C)O)[C@@H](C)CC)C(C)C)C(C)C)[C@@H](C)CC)C(C)C)[C@@H](C)CC [GLFSKFAGKGIKNFLIKGVKHIGKEVGMDVIRTGIDVAGCKIKGEC] |
| 3.46 (≈ 11.6 µg/mL) | 1.73 (≈ 5.8 µg/mL) | 3.46 (≈ 11.6 µg/mL) | 1.73 (≈ 5.8 µg/mL) |  |  |  | CC[C@H](C)[C@H](NC(=O)[C@@H](NC(=O)[C@H](CC(=O)O)NC(=O)[C@H](CC(C)C)NC(=O)[C@H](CC(C)C)NC(=O)CN)[C@@H](C)O)C(=O)N[C@@H](CCCCN)C(=O)N[C@@H](CC(N)=O)C(=O)N[C@@H](CCSC)C(=O)N[C@@H](C)C(=O)N[C@@H](CC(C)C)C(=O)N[C@@H](CC(N)=O)C(=O)N[C@@H](C)C(=O)N[C@@H](C)C(=O)N[C@@H](CCCCN)C(=O)N[C@@H](CO)C(=O)N[C@@H](C)C(=O)NCC(=O)N[C@H](C(=O)N[C@@H](CO)C(=O)N[C@H](C(=O)N[C@@H](CC(C)C)C(=O)N[C@@H](CC(N)=O)C(=O)N[C@@H](CO)C(=O)N[C@@H](CC(C)C)C(=O)N[C@@H](CO)C(=O)N[C@H]1CSSC[C@@H](C(=O)O)NC(=O)[C@H]([C@@H](C)O)NC(=O)[C@H](CCCCN)NC(=O)[C@H](CO)NC(=O)[C@H](CC(=O)O)NC(=O)[C@H](CCCCN)NC1=O)C(C)C)C(C)C [GLLDTIKNMALNAAKSAGVSVLNSLSCKDSKTC] |
| 5.57 (≈ 21.6 µg/mL) | 2.78 (≈ 10.8 µg/mL) | 2.78 (≈ 10.8 µg/mL) | 5.57 (≈ 21.6 µg/mL) |  |  |  | CC[C@H](C)[C@H](NC(=O)[C@H](CC(C)C)NC(=O)[C@H](CCC(N)=O)NC(=O)[C@@H](NC(=O)[C@H](C)NC(=O)CNC(=O)[C@H](CCCCN)NC(=O)[C@@H](NC(=O)[C@H](CC(C)C)NC(=O)[C@@H](NC(=O)[C@H](Cc1ccccc1)NC(=O)[C@@H](NC(=O)CN)C(C)C)[C@@H](C)O)[C@@H](C)CC)[C@@H](C)O)C(=O)NCC(=O)N[C@@H](CCCCN)C(=O)N[C@H](C(=O)N[C@@H](CC(C)C)C(=O)NCC(=O)N[C@@H](CCCCN)C(=O)N[C@@H](CCC(=O)O)C(=O)N[C@@H](CC(C)C)C(=O)NCC(=O)N[C@@H](CCCCN)C(=O)N[C@H](C(=O)NCC(=O)N[C@@H](CC(C)C)C(=O)N[C@@H](CCC(=O)O)C(=O)N[C@@H](CC(C)C)C(=O)N[C@@H](CCSC)C(=O)N[C@@H](C)C(=O)N[C@H]1CSSC[C@@H](C(=O)O)NC(=O)[C@H](CCC(N)=O)NC(=O)[C@H](CC(N)=O)NC(=O)[C@H]([C@@H](C)O)NC(=O)[C@H]([C@@H](C)CC)NC(=O)[C@H](CCCCN)NC1=O)[C@@H](C)O)[C@@H](C)O [GVFTLIKGATQLIGKTLGKELGKTGLELMACKITNQC] |
| 5.11 (≈ 12.4 µg/mL) | 2.55 (≈ 6.2 µg/mL) | 5.11 (≈ 12.4 µg/mL) | 5.11 (≈ 12.4 µg/mL) |  |  |  | CSCC[C@H](NC(=O)[C@H](CCC(=O)O)NC(=O)[C@H](C)NC(=O)[C@H](C)NC(=O)[C@@H](NC(=O)CNC(=O)[C@H](C)NC(=O)[C@@H](NC(=O)[C@H](Cc1ccccc1)NC(=O)[C@H](C)NC(=O)[C@@H](N)CC(C)C)C(C)C)C(C)C)C(=O)N[C@@H](CCSC)C(=O)N[C@@H](CCC(N)=O)C(=O)N[C@@H](Cc1cnc[nH]1)C(=O)N[C@H](C(=O)N[C@@H](Cc1ccc(O)cc1)C(=O)N[C@H]1CSSC[C@@H](C(=O)O)NC(=O)[C@H](CCCCN)NC(=O)[C@H](CCCCN)NC(=O)[C@H](CO)NC(=O)[C@H](C)NC(=O)[C@H](C)NC1=O)C(C)C [LAFVAGVAAEMMQHVYCAASKKC] |
|  |  |  |  | 0.695 (≈ 1.7 µg/mL) |  |  | CC[C@H](C)[C@H](NC(=O)[C@H](CCCN=C(N)N)NC(=O)[C@H](CCCN=C(N)N)NC(=O)[C@@H]1CCCN1C(=O)[C@@H]1CCCN1C(=O)[C@H](CCCN=C(N)N)NC(=O)[C@H](CCCCN)NC(=O)[C@H](CCCN=C(N)N)NC(=O)[C@@H]1CCCN1C(=O)[C@H](CC(C)C)NC(=O)[C@H](CCCN=C(N)N)NC(=O)[C@@H]1CCCN1C(=O)[C@H](CCCCN)NC(=O)[C@H](CCCCN)NC(=O)[C@H](CC(=O)O)NC(=O)[C@@H](N)C(C)C)C(=O)N[C@@H](Cc1ccc(O)cc1)C(=O)N[C@@H](CC(N)=O)C(=O)N[C@@H](CCCN=C(N)N)C(N)=O [VDKKPRLPRKRPPRRIYNR] |
|  |  |  |  | 2.06 (≈ 4.8 µg/mL) |  |  | CC[C@H](C)[C@H](NC(=O)[C@H](CCCN=C(N)N)NC(=O)[C@H](CCCN=C(N)N)NC(=O)[C@@H]1CCCN1C(=O)[C@@H]1CCCN1C(=O)[C@H](CCCN=C(N)N)NC(=O)[C@@H]1CCCN1C(=O)[C@H](CCCN=C(N)N)NC(=O)[C@@H]1CCCN1C(=O)[C@H](CC(C)C)NC(=O)[C@@H](NC(=O)[C@@H]1CCCN1C(=O)[C@@H]1CCCN1C(=O)[C@H](CCCCN)NC(=O)[C@H](CC(=O)O)NC(=O)[C@@H](N)C(C)C)C(C)C)C(=O)N[C@@H](Cc1ccc(O)cc1)C(=O)N[C@@H](CC(N)=O)C(=O)N[C@@H](CCCN=C(N)N)C(N)=O [VDKPPVLPRPRPPRRIYNR] |
|  |  |  |  | 1.97 (≈ 4.8 µg/mL) |  |  | CC[C@H](C)[C@H](NC(=O)[C@H](CCCN=C(N)N)NC(=O)[C@H](CCCN=C(N)N)NC(=O)[C@@H]1CCCN1C(=O)[C@@H]1CCCN1C(=O)[C@H](CCCN=C(N)N)NC(=O)[C@H](Cc1ccccc1)NC(=O)[C@H](CCCN=C(N)N)NC(=O)[C@@H]1CCCN1C(=O)[C@H](CC(C)C)NC(=O)[C@H](Cc1ccc(O)cc1)NC(=O)[C@@H]1CCCN1C(=O)[C@@H]1CCCN1C(=O)[C@H](CCCCN)NC(=O)[C@H](CC(=O)O)NC(=O)[C@@H](N)C(C)C)C(=O)N[C@@H](Cc1ccc(O)cc1)C(=O)N[C@@H](CC(N)=O)C(=O)N[C@@H](CCCN=C(N)N)C(N)=O [VDKPPYLPRFRPPRRIYNR] |
|  |  |  |  | 0.951 (≈ 2.4 µg/mL) |  |  | CC[C@H](C)[C@H](NC(=O)[C@H](CCCN=C(N)N)NC(=O)[C@H](CCCN=C(N)N)NC(=O)[C@@H]1CCCN1C(=O)[C@@H]1CCCN1C(=O)[C@H](CCCN=C(N)N)NC(=O)[C@H](CCCCN)NC(=O)[C@H](CCCN=C(N)N)NC(=O)[C@@H]1CCCN1C(=O)[C@H](CCCN=C(N)N)NC(=O)[C@H](Cc1ccc(O)cc1)NC(=O)[C@@H]1CCCN1C(=O)[C@H](CCCN=C(N)N)NC(=O)[C@H](CCCCN)NC(=O)[C@H](CC(=O)O)NC(=O)[C@@H](N)C(C)C)C(=O)N[C@@H](Cc1ccc(O)cc1)C(=O)N[C@@H](CC(N)=O)C(=O)N[C@@H](CCCN=C(N)N)C(N)=O [VDKRPYRPRKRPPRRIYNR] |
|  |  |  |  | 2.01 (≈ 4.8 µg/mL) |  |  | CC[C@H](C)[C@H](NC(=O)[C@H](CCCN=C(N)N)NC(=O)[C@H](CCCN=C(N)N)NC(=O)[C@@H]1CCCN1C(=O)[C@@H]1CCCN1C(=O)[C@H](CCCN=C(N)N)NC(=O)[C@@H]1CCCN1C(=O)[C@H](CCCN=C(N)N)NC(=O)[C@@H]1CCCN1C(=O)[C@H](CC(C)C)NC(=O)[C@H](Cc1ccc(O)cc1)NC(=O)[C@@H]1CCCN1C(=O)[C@@H]1CCCN1C(=O)[C@H](CCCCN)NC(=O)[C@H](CC(N)=O)NC(=O)[C@@H](N)C(C)C)C(=O)N[C@@H](Cc1ccc(O)cc1)C(=O)N[C@@H](CC(N)=O)C(=O)N[C@@H](CCCN=C(N)N)C(N)=O [VNKPPYLPRPRPPRRIYNR] |
|  |  |  | 1.64 (≈ 4 µg/mL) | 1.36 (≈ 3.3 µg/mL) | 26.3 (≈ 64 µg/mL) | 0.247 (≈ 0.6 µg/mL) | CC[C@H](C)[C@H](NC(=O)[C@H](CCCN=C(N)N)NC(=O)[C@H](CCCN=C(N)N)NC(=O)[C@@H]1CCCN1C(=O)[C@@H]1CCCN1C(=O)[C@H](CCCN=C(N)N)NC(=O)[C@@H]1CCCN1C(=O)[C@H](CCCN=C(N)N)NC(=O)[C@@H]1CCCN1C(=O)[C@H](CC(C)C)NC(=O)[C@H](Cc1ccc(O)cc1)NC(=O)[C@@H]1CCCN1C(=O)[C@@H]1CCCN1C(=O)[C@H](CCCCN)NC(=O)[C@H](CCCN=C(N)N)NC(=O)[C@@H](N)C(C)C)C(=O)N[C@@H](Cc1ccc(O)cc1)C(=O)N[C@@H](CC(N)=O)C(=O)N[C@@H](CCCN=C(N)N)C(N)=O [VRKPPYLPRPRPPRRIYNR] |
